Measurements published in ChEMBL document CHEMBL1201862, “PubChem BioAssay data set” (2004).
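Dose response: 5 concentrations. Exposure: 48 h. Format: 96-well plates. Endpoint: linear interpolation; highest concentration if not reached. At the GI50, growth is halved.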 Activity calls are given as the source filed them. No stated cut-off is given here; in the data, active = GI50 up to about 1.1 µM and inactive = higher.

How the values were obtained:
Assay in all cases: DTP human tumour cell line panel, 48 h
[1] = test system: HCT-15
[2] = test system: SK-MEL-5
[3] = test system: OVCAR-3
[4] = test system: SK-MEL-28
[5] = test system: K562
[6] = test system: MDA-MB-231
[7] = test system: HL-60
[8] = test system: NCI-H460
[9] = test system: HCT-116
[10] = test system: MCF7
[11] = test system: IGROV-1
[12] = test system: COLO 205
[13] = test system: EKVX
[14] = test system: OVCAR-8
[15] = test system: OVCAR-4
[16] = test system: SNB-19
[17] = test system: SK-OV-3
[18] = test system: UACC-62
[19] = test system: UO-31
[20] = test system: SF-539

Row | Compound | GI50 [1] [µM] | GI50 [2] | GI50 [3] | GI50 [4] | GI50 [5] | GI50 [6] | GI50 [7] | GI50 [8] | GI50 [9] | GI50 [10] | GI50 [11] | GI50 [12] | GI50 [13] | GI50 [14] | GI50 [15] | GI50 [16] | GI50 [17] | GI50 [18] | GI50 [19] | GI50 [20]
1 | S=C1Nc2ccccc2SC1c1ccccc1 (stereo not given) | > 100 | > 100 µM (inactive) | 30.5 µM (inactive) | > 100 µM (inactive) | 94.8 µM (inactive) | 66.1 µM (inactive) | 5.22 µM (inactive) | > 100 µM (inactive) | > 100 µM (inactive) | > 100 µM (inactive) | > 100 µM (inactive) | > 100 µM (inactive) | > 100 µM (inactive) | > 100 µM (inactive) | 46 µM (inactive) | 39 µM (inactive) | 35.8 µM (inactive) | > 100 µM (inactive) | > 100 µM (inactive) | 
2 | COCn1c2ccc(OC(C)=O)cc2c2c(=O)oc(N(C)C)nc21 | > 100 | > 100 µM (inactive) |  | > 100 µM (inactive) | > 100 µM (inactive) | > 100 µM (inactive) | > 100 µM (inactive) | > 100 µM (inactive) | > 100 µM (inactive) | > 100 µM (inactive) | > 100 µM (inactive) | > 100 µM (inactive) | > 100 µM (inactive) | > 100 µM (inactive) | > 100 µM (inactive) | > 100 µM (inactive) | > 100 µM (inactive) | > 100 µM (inactive) |  | > 100 µM (inactive)
3 | O=c1oc2ccccc2cc1-c1cn2c(n1)sc1ccccc12 | > 100 | > 100 µM (inactive) | > 100 µM (inactive) | > 100 µM (inactive) | > 100 µM (inactive) | > 100 µM (inactive) | > 100 µM (inactive) | > 100 µM (inactive) | 75.5 µM (inactive) | 4.75 µM (inactive) | > 100 µM (inactive) | > 100 µM (inactive) | 2.33 µM (inactive) | 83.9 µM (inactive) |  |  | > 100 µM (inactive) | > 100 µM (inactive) | > 100 µM (inactive) | > 100 µM (inactive)
4 | Cc1cc2nc(C#N)c(N3CCN(c4ccc([N+](=O)[O-])cc4)CC3)nc2cc1C | > 100 | > 100 µM (inactive) | > 100 µM (inactive) | > 100 µM (inactive) | > 100 µM (inactive) | > 100 µM (inactive) |  | > 85.9 µM (inactive) | > 68.4 µM (inactive) | > 72.8 µM (inactive) | > 100 µM (inactive) | > 100 µM (inactive) | > 100 µM (inactive) | > 56.2 µM (inactive) | 73.6 µM (inactive) | 67 µM (inactive) | > 69.5 µM (inactive) | > 79.1 µM (inactive) | > 93.8 µM (inactive) | 26.1 µM (inactive)
5 | CCCCCCCCCCCCCCCCCCNC(=S)NC=C1C(=O)c2ccccc2C1=O | 10.2 | 18.2 µM (inactive) | 13.8 µM (inactive) | 16.9 µM (inactive) |  | 10.9 µM (inactive) | 3.87 µM (inactive) | 12.1 µM (inactive) | 4.08 µM (inactive) | 12 µM (inactive) | 1.4 µM (inactive) | 15.7 µM (inactive) | 13 µM (inactive) | 13.2 µM (inactive) |  | 17.3 µM (inactive) | 16 µM (inactive) |  | 10.3 µM (inactive) | 18.3 µM (inactive)
6 | Cc1ccc(-n2nnc3c(NNc4ccccc4)n[nH]c(=O)c32)cc1 | > 100 | 43.1 µM (inactive) |  | > 100 µM (inactive) | 48.3 µM (inactive) | 96.8 µM (inactive) | 84.7 µM (inactive) | 30.8 µM (inactive) | 82.8 µM (inactive) | 35.3 µM (inactive) |  | 75 µM (inactive) | 80.7 µM (inactive) | 49.8 µM (inactive) | 36.9 µM (inactive) | 59 µM (inactive) |  |  |  | > 100 µM (inactive)
7 | O=C1CN(c2cccc(C(F)(F)F)c2)C(=O)CN1NCNN1CC(=O)N(c2cccc(C(F)(F)F)c2)CC1=O | > 100 | > 100 µM (inactive) |  | > 100 µM (inactive) | > 100 µM (inactive) | > 100 µM (inactive) | > 100 µM (inactive) | > 100 µM (inactive) | > 100 µM (inactive) | > 100 µM (inactive) | > 100 µM (inactive) | > 100 µM (inactive) | > 100 µM (inactive) | > 100 µM (inactive) |  | > 100 µM (inactive) | > 100 µM (inactive) |  | > 100 µM (inactive) | > 100 µM (inactive)
8 | Cc1ccc(S(=O)(=O)NC(CN)C(=O)O)cc1 (stereo not given) | > 100 | > 100 µM (inactive) | > 100 µM (inactive) | > 100 µM (inactive) |  | > 100 µM (inactive) |  | > 100 µM (inactive) | > 100 µM (inactive) | > 100 µM (inactive) | > 100 µM (inactive) | > 100 µM (inactive) | > 100 µM (inactive) | > 100 µM (inactive) | > 100 µM (inactive) | > 100 µM (inactive) | > 100 µM (inactive) | > 100 µM (inactive) | > 100 µM (inactive) | > 100 µM (inactive)
9 | COC(OC)[C@@H]1OC[C@H](n2ccc(=O)[nH]c2=O)[C@H]1O | > 100 | > 100 µM (inactive) | > 100 µM (inactive) | > 100 µM (inactive) | > 100 µM (inactive) | > 100 µM (inactive) |  | > 100 µM (inactive) | > 100 µM (inactive) | > 100 µM (inactive) | > 100 µM (inactive) | > 100 µM (inactive) | > 100 µM (inactive) |  | > 100 µM (inactive) | 67.3 µM (inactive) | > 100 µM (inactive) | > 100 µM (inactive) | > 100 µM (inactive) | > 100 µM (inactive)
10 | C[n+]1c(-c2ccc(/C=N/NC(=S)N/N=C/c3ccc(-c4cn5ccsc5[n+]4C)cc3)cc2)cn2ccsc21 | > 100 | > 100 µM (inactive) |  | > 100 µM (inactive) | > 10 µM (inactive) | > 100 µM (inactive) | > 100 µM (inactive) | > 100 µM (inactive) | > 100 µM (inactive) | > 100 µM (inactive) | > 100 µM (inactive) | > 100 µM (inactive) | > 100 µM (inactive) | > 100 µM (inactive) | > 100 µM (inactive) | > 100 µM (inactive) | > 100 µM (inactive) |  | > 100 µM (inactive) | > 100 µM (inactive)
11 | CN(C)C(=O)Oc1ccc[n+](C)c1 [PYRIDOSTIGMINE BROMIDE] | > 100 | > 100 µM (inactive) | > 100 µM (inactive) | > 100 µM (inactive) | > 100 µM (inactive) | > 100 µM (inactive) | > 100 µM (inactive) | > 100 µM (inactive) | > 100 µM (inactive) | > 100 µM (inactive) | > 100 µM (inactive) | > 100 µM (inactive) | > 100 µM (inactive) | > 100 µM (inactive) | > 100 µM (inactive) | > 100 µM (inactive) |  | > 100 µM (inactive) | > 100 µM (inactive) | 
